{
  "source": "paper PMC6591251",
  "about": "“Discovery of potent necroptosis inhibitors targeting RIPK1 kinase activity for the treatment of inflammatory disorder and cancer metastasis” (Cell Death & Disease, 2019)",
  "key": {"[1]": {"tested_on": "B16-F10 cells", "test": "Lung metastasis model of melanoma cells", "type": "in vivo, C57BL/6 mice", "conditions": "5 mg/kg ip pre-treatment; 14 days", "procedure": "(§1) Studies have shown that RIPK1 kinase activity is involved in the promotion of tumor metastasis through death receptor 6-dependent necroptosis of endothelial cells[22] or VEGF-dependent activation of vascular permeability. We thus evaluated the therapeutic effect of PK68 on lung metastasis of mouse melanoma B16-F10 cells in vivo. […] After 2 weeks, the metastasis of B16-F10 cells was measured by histological analysis and assessed as the number of metastasis nodules in the lung. […] Two weeks after intravenous injection of RFP-LL/2 cells, RFP^+ LL/2 cells were isolated from the tumor tissues by flow cytometer sorting and no signal of phosphorylated RIPK1 was detected in these tumors cells (Supplementary Fig. 22). […] Further, we evaluated the effect of PK68 on the tumor cell transmigration across the cultured endothelium. […]\n(§2) C57BL/6 mice bearing B16-F10 cells (a, b) or RFP-labeled LL/2 cells (c, d) were treated with vehicle, PK68 (5 mg/kg) or Nec-1s (5 mg/kg) as described in the Materials and methods. a, b Tumor metastasis of B16-F10 was measured by the numbers of metastasis nodules and histological analysis. […] The numbers of metastasis nodules on lung surfaces (b) in the metastasis model of B16-F10 were counted with the microscope. c, d Tumor metastasis of RFP-labeled LL/2 was calculated by RFP […] intensity. […]"}, "[2]": {"tested_on": "RFP-LL/2 cells", "test": "Lung metastasis model of RFP-labeled Lewis lung carcinoma cells", "type": "in vivo, C57BL/6 mice", "conditions": "5 mg/kg ip pre-treatment; 14 days", "procedure": "as §1, §2"}},
  "data": [
    {"smiles": "CC(=O)Nc1nc2ccc(-c3cnc(C)c(NC(=O)OC4CCCCC4)c3)cc2s1", "note": "[PK68, cyclohexyl (5-(2-acetamidobenzo[d]thiazol-6-yl)-2-methylpyridin-3-yl)carbamate]", "values": [
      {"measurement": "number of pulmonary metastasis nodules", "setting": "[1]", "result": "significantly reduced"},
      {"measurement": "lung metastasis of RFP-LL/2 cells", "setting": "[2]", "result": "markedly decreased"}
    ]}
  ]
}
